pIC50: −log10 of the molar value.
How the values were obtained:
[1] = target: T1, 4-aminobutyrate aminotransferase, mitochondrial (Homo sapiens, UniProt P80404); test: Activity at GABA-AT assessed as substrate activity relative to gamma amino butyric acid; design: concentration or dose not given beside the values
[2] = target: T1, 4-aminobutyrate aminotransferase, mitochondrial; test: Inhibition of GABA-AT

T1 sequence (P80404 whole entry): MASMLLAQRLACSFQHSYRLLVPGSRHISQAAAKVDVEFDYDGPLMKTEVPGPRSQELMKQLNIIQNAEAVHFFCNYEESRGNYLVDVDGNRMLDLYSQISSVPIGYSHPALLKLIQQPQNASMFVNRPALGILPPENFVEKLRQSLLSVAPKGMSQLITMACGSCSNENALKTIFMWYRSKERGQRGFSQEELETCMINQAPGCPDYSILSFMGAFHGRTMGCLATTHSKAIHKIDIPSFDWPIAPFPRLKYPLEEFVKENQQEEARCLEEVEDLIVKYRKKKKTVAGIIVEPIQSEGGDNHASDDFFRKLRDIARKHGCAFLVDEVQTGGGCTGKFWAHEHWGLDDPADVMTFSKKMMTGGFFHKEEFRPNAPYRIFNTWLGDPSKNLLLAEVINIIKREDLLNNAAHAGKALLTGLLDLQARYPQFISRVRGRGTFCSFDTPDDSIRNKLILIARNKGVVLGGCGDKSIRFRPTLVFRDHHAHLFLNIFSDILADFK

Relative stimulatory activity [1] | pIC50 [2] | Compound
0% | < 2.30 | Nc1cccc(C(=O)O)c1 [3-AMINOBENZOIC ACID]
5.65% | < 2.30 | NCc1ccccc1CC(=O)O

The remaining lines, values behind:

Compound | Relative stimulatory activity [1] | pIC50 [2]
NCc1cccc(C(=O)O)c1 | 3.42% | < 2.30
NCc1ccccc1C(=O)O | 0% | < 2.30
NCc1cccc(CC(=O)O)c1 | 0.78% | < 2.30
Nc1ccccc1C(=O)O [ANTHRANILIC ACID] | 0% | < 2.30
Nc1cccc(CC(=O)O)c1 | 0% | < 2.30
